{
  "source": "patent US20240059740A1",
  "about": "“CYCLIC PEPTIDES AND USES THEREOF” (PRE[…] INC., priority 2020, published 2024)",
  "assay_type_in_all_cases": "cell-based, human",
  "key": {"[1]": {"tested_on": "U87 cells", "assay": "BME cell invasion assay, U87", "settings": "24 h", "experimental": "(§1) To assess whether the ability of SEQ ID NO.1 to inhibit MMP-2 activity and, to a lesser extent, reduce the production of matrix proteinases and downregulate the expression of EMT markers, was of functional consequence in reducing the invasiveness of the GBM cells, the ability of the peptide was tested at the concentrations of 1, 10 and 100 μM (none of which are toxic to cells) to inhibit invasion of the GBM cells through a basement membrane. This assay, described in more detail below, is an in vitro surrogate for measurement of the in vivo invasion by tumour cells of their environment.\n(§2) The cell invasion assay employs a simplified Boyden chamber-like design that consists of two chambers separated by a filter (an 8 μm polycarbonate (PC) membrane) coated with basement membrane or different extracellular matrix components. The cell suspension is placed in the top chamber and incubated in the presence of test media containing specific chemo-attractants in the bottom chamber. Cells migrate from the top chamber to the bottom of the filter by degrading the coating over the filter pores. Detection of cell invasion is quantified using Calcein AM. Cell dissociation/Calcein AM solution is placed in the bottom chamber to dissociate the migrating cells from the filter. Calcein AM is internalized by the cells, and intracellular-esterases cleave the aceto-methylester (AM) moiety. Free Calcein fluoresces brightly and is used to quantitate the number of cells that have invaded or migrated by comparison with a standard curve (In Vitro Technologies Pty Ltd, (https://lifescience.invitro.com.au/brands/r-and-d-systems/).\n(§3) The filter was coated with PathClear® growth factor reduced BME. The selected peptides were applied to the cells in both upper and lower wells to make sure the concentration of peptides were the same and the chemoattractant was serum at a concentration of 2% (for adherent U87 & U251 cells) or growth factor mix required in the medium (for non- adherent, 081024 oncospheres).\n(§4) Cell invasion was determined using CultureCoat® 96 Well Medium BME Cell Invasion assay. Briefly, the cells were pre-starved 24 h before harvest. Then seeding 25,000 per well of cell in the upper chamber with serum free medium together different concentration of peptide. The bottom chamber also added different concentration of peptides with 2% (V/V) serum for GBM adherent cells or growth factor mix for neurosphere cells as chemoattractant. After 24 h incubation, the invading cells were measured by Calcein AM and calculated based on standard curve.\n(§5) The results are shown in Table 12, the results are expressed as % inhibition."}, "[2]": {"tested_on": "U251 cells", "assay": "BME cell invasion assay, U251", "settings": "24 h", "experimental": "as §1, §2, §3, §4, §5"}, "[3]": {"tested_on": "CDH-2 (N-cadherin) mRNA", "assay": "Real time RT-PCR, CDH-2 (N-cadherin) mRNA expression", "excerpt": "(§6) The real-time reverse transcription polymerase chain reaction (RT-PCR) uses fluorescent reporter molecules to monitor the production of amplification products during each cycle of the PCR reaction. This combines the nucleic acid amplification and detection steps into one homogeneous assay and use of appropriate chemistries and data analysis eliminates the need for Southern blotting or DNA sequencing for amplicon identification. Its simplicity, specificity and sensitivity, together with its potential for high throughput and the ongoing introduction of new chemistries, more reliable instrumentation and improved protocols, has made real-time RT-PCR the benchmark technology for the detection and/or comparison of RNA levels.’\n(§7) In order to detect and quantify the expression of specific genes at mRNA level, real-time reverse transcriptase polymerase chain reaction (Real time RT-PCR) was performed. Total RNA of samples was isolated and purified using the PureLink® RNA Mini Kit (Life technologies). The concentration of total RNA was detected by NanoDrop 2000 Spectrophotometer (Thermo Scientific). The total RNA (2000 ng) was reverse transcribed using the High-Capacity cDNA Reverse Transcription Kit (Applied Biosystems™).\n(§8) The primers of target genes were TaqMan™ Gene Expression Assay for human PLAU (Hs01547054_m1), MMP-2 (Hs01548727_m1), MMP-9 (Hs00957562_m1), Snail-1 (Hs00195591_m1), Snail-2 (Hs00161904_m1), N-cadherin (Hs00983056_m1) and Twist (Hs01675818_s1). Relative quantification was done by reference to 18S ribosomal RNA (18S rRNA) and analysed using the comparative critical threshold (Ct) method\n(§9) The mRNA expression of MMPs was measured using qRT-PCR. This was tested three independent times; the results are shown in Tables 9, 10 and 11 for U251, U87 cells and O81024 cells respectively. Results are reported as percent of the control cells (no treatment). Both MMP-2 and uPA were decreased in U251 by SEQ ID NO.1.\nEpithelial-mesenchymal transition (EMT) is the process by which epithelial cells acquire a migratory (metastatic) phenotype and so EMT is associated with cancer metastasis, cancer cell stemness, chemoresistance and immune resistance. Therefore, the determination of the mRNA expression of EMT markers is a valuable tool to evaluate invasion potential of cancer cells.\nThe ‘Snail’ superfamily is involved in cell differentiation and survival, two processes central in cancer research. Snail-1 has a pivotal role in the regulation of epithelial-mesenchymal transition (EMT) and Snail-1 expression is associated with poor prognosis in metastatic cancer, and tumours with elevated Snail-1 expression are harder to treat. […]"}, "[4]": {"tested_on": "uPA (PLAU) mRNA", "assay": "Real time RT-PCR, uPA mRNA expression", "excerpt": "as §6, §7, §8, §9"}, "[5]": {"tested_on": "081024 cells", "assay": "BME cell invasion assay, 081024", "settings": "24 h", "experimental": "as §1, §2, §3, §4, §5"}, "[6]": {"settings": "081024 cells, baseline expression level = 1"}, "[7]": {"settings": "U87 cells, baseline expression level = 1"}},
  "note": "Residues, ends and D or L forms follow the SMILES beside them.",
  "data": [
    {"molecule": "CC(C)C[C@@H]1NC(=O)[C@H](C)NC(=O)[C@@H](NC(=O)[C@@H]2CCCN2C(=O)[C@@H](N)CC(C)C)CSSC(C)(C)CNC(=O)CC[C@@H](C(=O)N[C@@H](CCCNC(=N)N)C(N)=O)NC(=O)[C@H](CC(=O)O)NC(=O)[C@H](CC(N)=O)NC1=O", "note": "[SEQ ID NO: 1, Leu-Pro-c(SSA*-Ala-Leu-Asn-Asp-Glu)-Arg-NH2] (HELM PEPTIDE1{L.P.C.A.L.N.D.E.R.[am]}|CHEM1{[CC(C)(CN[*:2])S[*:1]]}$PEPTIDE1,CHEM1,3:R3-1:R1|PEPTIDE1,CHEM1,8:R3-1:R2$$$V2.0; N-terminus assumed)", "values": [
      {"measurement": "Invasion Inhibition Index (%)", "setting": "[1]; 1 μM, listed as SEQ ID NO. 1", "value": 7.6, "unit": "%"},
      {"measurement": "Invasion Inhibition Index (%)", "setting": "[1]; 1 μM, listed as SEQ ID NO.1", "value": "lower inhibition index compared to Chlorotoxin"},
      {"measurement": "Invasion Inhibition Index (%)", "setting": "[1]; 10 μM", "value": 15.5, "unit": "%"},
      {"measurement": "Invasion Inhibition Index (%)", "setting": "[1]; 100 μM", "value": 24.3, "unit": "%"},
      {"measurement": "Invasion Inhibition Index (%)", "setting": "[2]; 1 μM", "value": 13.2, "unit": "%"},
      {"measurement": "Invasion Inhibition Index (%)", "setting": "[2]; 10 μM", "value": 17.8, "unit": "%"},
      {"measurement": "Invasion Inhibition Index (%)", "setting": "[2]; 100 μM", "value": 26.7, "unit": "%"},
      {"measurement": "mRNA expression, CDH-2", "setting": "[3]; [6]", "value": 0.91},
      {"measurement": "mRNA expression, CDH-2", "setting": "[3]; [7]", "value": 0.98},
      {"measurement": "mRNA expression, CDH-2", "setting": "[3]; U251 cells, relative to control (no treatment)", "value": 0.82},
      {"measurement": "mRNA expression, CDH-2 (in words)", "setting": "[3]; cell line not specified", "value": "non-statistical decrease in expression"},
      {"measurement": "mRNA expression, uPA", "setting": "[4]; [6]", "value": 0.85},
      {"measurement": "mRNA expression, uPA", "setting": "[4]; [7]", "value": 1.19},
      {"measurement": "mRNA expression, uPA", "setting": "[4]; U251 cells, relative to control (no treatment), 18S rRNA reference, listed as SEQ ID NO. 1", "value": 0.63},
      {"measurement": "mRNA expression, uPA", "setting": "[4]; U251 cells, relative to control (no treatment), 18S rRNA reference, listed as SEQ ID NO.1", "value": "decreased"},
      {"measurement": "Invasion Inhibition Index (%)", "setting": "[5]; 1 μM, listed as SEQ ID NO. 1", "value": 39.9, "unit": "%"},
      {"measurement": "Invasion Inhibition Index (%)", "setting": "[5]; 1 μM, listed as SEQ ID NO.1", "value": "fairly comparable to that of Chlorotoxin"},
      {"measurement": "Invasion Inhibition Index (%)", "setting": "[5]; 10 μM", "value": 50.8, "unit": "%"},
      {"measurement": "Invasion Inhibition Index (%)", "setting": "[5]; 100 μM", "value": 58.3, "unit": "%"}
    ]}
  ]
}
